From patent US20100113513A1, “QUINOLINE DERIVATIVES AS FUNGICIDES” (SYNGENTA CROP PROTECTION, INC., priority 2007, published 2010)

The compounds below were run on Erysiphe graminis f.sp. tritici (assay: Erysiphe graminis f.sp. tritici (wheat powdery mildew) wheat leaf segment test, preventive). Settings: Blumeria graminis, foliar, 96 h, wheat leaf segments, assessed four days after inoculation, read-out: control of fungal infection, Erysiphe graminis f.sp. tritici.
Format: in vivo

Row | Compound | pest or weed control at 200 ppm
1 | COC(Oc1cc(Br)c2ncc(Br)cc2c1)C(=O)NC(C)(C)C (stereo not drawn) [12 (99), N-tert-Butyl-2-(3,8-dibromo-quinolin-6-yloxy)-2-methoxy-acetamide] | ≥ 60%
2 | CCC(Oc1ccc2ncc(Br)cc2c1)C(=O)NC(C)(C)C (stereo not drawn) [12 (154), 2-(3-bromo-quinolin-6-yloxy)-N-tert-butyl-butyramide] | ≥ 60%
3 | COC(Oc1ccc2ncc(Br)cc2c1)C(=O)NC(C)(C)C (stereo not drawn) [12 (155), 2-(3-bromo-quinolin-6-yloxy)-N-tert-butyl-2-methoxy-acetamide] | ≥ 60%
4 | CCOC(Oc1ccc2ncc(Br)cc2c1)C(=O)NC(C)(C)C (stereo not drawn) [12 (156), 2-(3-Bromo-quinolin-6-yloxy)-N-tert-butyl-2-ethoxy-acetamide] | ≥ 60%
5 | CCC(Oc1cc(C)c2ncc(Br)cc2c1)C(=O)NC(C)(C)COC (stereo not drawn) [47 (90), 2-(3-Bromo-8-methyl-quinolin-6-yloxy)-N-(2-methoxy-1,1-dimethyl-ethyl)-butyramide] | ≥ 60%
6 | COCC(C)(C)NC(=O)C(OC)Oc1ccc2ncc(Br)cc2c1 (stereo not drawn) [47 (155), 2-(3-Bromo-quinolin-6-yloxy)-2-methoxy-N-(2-methoxy-1,1-dimethyl-ethyl)-acetamide] | ≥ 60%
7 | CCOC(Oc1ccc2ncc(Br)cc2c1)C(=O)NC(C)(C)COC (stereo not drawn) [47 (156), 2-(3-Bromo-quinolin-6-yloxy)-2-ethoxy-N-(2-methoxy-1,1-dimethyl-ethyl)-acetamide] | ≥ 60%
8 | CCC(Oc1ccc2ncc(Br)cc2c1)C(=O)NC(C)(C#N)COC (stereo not drawn) [52 (154), 2-(3-Bromo-quinolin-6-yloxy)-N-(1-cyano-2-methoxy-1-methyl-ethyl)-butyramide] | ≥ 60%
9 | COCC(C)(C#N)NC(=O)C(OC)Oc1ccc2ncc(Br)cc2c1 (stereo not drawn) [52 (155), 2-(3-Bromo-quinolin-6-yloxy)-N-(1-cyano-2-methoxy-1-methyl-ethyl)-2-methoxy-acetamide] | ≥ 60%
